Measurements published in ChEMBL document CHEMBL4665786, “Cellular Target Proteome in Breast Cancer Cells of an Oplopane Sesquiterpenoid Isolated from Tussilago farfara” (J Nat Prod, 2020).

What was measured:
[1] = tested on: MCF7; assay: Antiproliferative activity against human MCF7 cells by MTT assay; type: functional, cell-based
[2] = tested on: MDA-MB-231; assay: Antiproliferative activity against human MDA-MB-231 cells by MTT assay; type: functional, cell-based

SMILES	IC50 [1] [µM]	IC50 [2] [µM]
C=C(C1[C@H](OC(C)=O)C(=O)[C@@]2(C)O[C@H]2[C@@H]1OC(C)=O)[C@H](CC=C(C)C)OC(=O)/C(C)=C\C (stereo partly specified)	> 10	> 10
C=C(C1C[C@@H]2O[C@]2(C)C(=O)[C@H]1OC(=O)/C(C)=C\C)[C@H](CC=C(C)C)OC(=O)/C(C)=C\C (stereo partly specified)	> 10	> 10
C=C1[C@H]2[C@@H](C(C(C)OC)C(=O)[C@H]2OC(=O)C(C)CC)[C@H](C(C)C)C[C@H]1OC(=O)/C=C(\C)CC (stereo partly specified)		> 90
C=C1[C@@H]2C(O)C(=O)/C(=C\C)[C@H]2[C@H](C(C)C)C[C@H]1OC(=O)/C=C(\C)CC (stereo partly specified)		11.3
C=C(C1C[C@@H]2O[C@]2(C)C(=O)[C@H]1OC(C)=O)[C@H](CC=C(C)C)OC(=O)/C(C)=C\C (stereo partly specified)	> 10	> 10
C/C=C1\C(=O)[C@@H](OC(=O)C(C)CC)[C@@H]2[C@@H]1[C@H](C(C)C)C[C@@H](OC(=O)/C=C(\C)CC)C21CO1 (stereo partly specified)	17.6	8.6
C=C1[C@H](OC(=O)/C=C(\C)CC)C[C@@H](C(C)C)[C@@H]2/C(=C\C)C(=O)C[C@@H]12	> 10	> 10
C=C1[C@H](OC(=O)/C=C(\C)CC)C[C@@H](C(C)C)[C@@H]2/C(=C/C)C(=O)C[C@@H]12	> 10	> 10
C=C1[C@H]2[C@@H]([C@@H]([C@H](C)OC(C)=O)C(=O)[C@H]2OC(=O)C(C)CC)[C@H](C(C)C)C[C@H]1OC(=O)/C=C(\C)CC (stereo partly specified)	12.8	7.3
C/C=C1\C(=O)[C@@H](OC(=O)C(C)CC)[C@@H]2[C@@H]1[C@H](C(C)C)C[C@@H](OC(=O)/C=C(\C)CC)C2(O)CN=[N+]=[N-] (stereo partly specified)	14.1	5.5
C=C1[C@@H]2C(O)C(=O)C(C(C)OC)[C@H]2[C@H](C(C)C)C[C@H]1OC(=O)/C=C(\C)CC (stereo partly specified)		> 90
C=C1[C@H](OC(=O)/C=C(\C)CC)C[C@@H](C(C)C)[C@@H]2[C@@H]([C@H](C)OC(C)=O)C(=O)C[C@@H]12	> 10	> 10
